In the supplement of paper PMC10307832:

Compound: C1=CC2=NC=CN=C2C=C1/C=C/3\C(=O)NC(=O)S3 + CC1(C)CCC(c2ccc(Cl)cc2)=C(CN2CCN(c3ccc(C(=O)NS(=O)(=O)c4ccc(N[C@H](CCN5CCOCC5)CSc5ccccc5)c(S(=O)(=O)C(F)(F)F)c4)cc3)CC2)C1 [Navitoclax] (partner 0.5 µM)
Experiment: relative viability (nuclei count vs DMSO), 5 days (fraction); higher = more cells survive
Conditions: first compound 0.02 µM
In short: (§1)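 Relative viability is defined as nuclei in treated wells over nuclei in vehicle wells. Duplicate plates were run and medians reported. Lung cancer cell lines in 1536-well plates were dosed by pin tool one day after seeding, with one drug or with a fixed anchor-drug dose plus five library-drug doses (not always all listed) in √10 steps, and nuclei were counted after 5 days.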

Cell Line | relative viability
NCI-H1734 | 0.799
NCI-H460 | 1.03
NCI-H2347 | 0.756
SK-LU-1 | 0.84
NCI-H1395 | 1.13
201T | 1.18
NCI-H1915 | 0.757
HCC-827 | 0.999
LXF-289 | 0.92
NCI-H23 | 0.714
NCI-H647 | 0.945
CAL-12T | 1.3
NCI-H1651 | 0.989
EPLC-272H | 1.08
NCI-H2228 | 1.15
NCI-H1355 | 0.87
NCI-H3122 | 1.06
NCI-H1437 | 1.03
NCI-H1755 | 0.881
NCI-H2023 | 1.01
HCC-15 | 0.662
NCI-H1793 | 0.509
PC-14 | 0.871
EKVX | 0.931
LC-2-ad | 0.441
NCI-H1944 | 1.02
NCI-H1975 | 0.998
RERF-LC-KJ | 0.69
PC-3 [JPC-3] | 0.744

Same assay, conditions: first compound 0.06325 µM

Cell Line | relative viability
NCI-H441 | 0.562
NCI-H460 | 1.24
NCI-H2347 | 0.443
SK-LU-1 | 0.765
NCI-H1395 | 1.42
201T | 1.26
NCI-H1915 | 0.796
HCC-827 | 1.01
LXF-289 | 0.918
NCI-H23 | 1.18
NCI-H647 | 1.36
CAL-12T | 1.13
NCI-H1651 | 1.03
EPLC-272H | 1.03
NCI-H2228 | 0.868
NCI-H1355 | 1.01
NCI-H3122 | 0.997
NCI-H1437 | 1.1
NCI-H1755 | 0.947
NCI-H2023 | 1.11
HCC-15 | 0.655
NCI-H1793 | 0.439
PC-14 | 1
EKVX | 0.865
LC-2-ad | 0.455
NCI-H1944 | 1.05
NCI-H1975 | 1.12
RERF-LC-KJ | 0.897
PC-3 [JPC-3] | 0.765

Same assay, conditions: first compound 0.2 µM

Cell Line | relative viability
NCI-H1734 | 0.897
NCI-H460 | 1.19
NCI-H2347 | 0.904
SK-LU-1 | 1.02
NCI-H1395 | 1.21
201T | 1.19
NCI-H1915 | 0.806
HCC-827 | 1.03
LXF-289 | 0.898
NCI-H23 | 0.828
NCI-H647 | 1.08
CAL-12T | 1.09
NCI-H1651 | 0.915
EPLC-272H | 1.41
NCI-H2228 | 1.44
NCI-H1355 | 1.05
NCI-H3122 | 0.973
NCI-H1437 | 1.12
NCI-H1755 | 1.03
NCI-H2023 | 1.02
HCC-15 | 0.746
NCI-H1793 | 0.496
PC-14 | 1
EKVX | 0.916
LC-2-ad | 0.461
NCI-H1944 | 1.08
NCI-H1975 | 1.04
RERF-LC-KJ | 1.01
PC-3 [JPC-3] | 0.783

Same assay, conditions: first compound 0.6325 µM

Cell Line | relative viability
NCI-H441 | 0.771
NCI-H1734 | 0.78
NCI-H460 | 1.02
NCI-H2347 | 0.863
SK-LU-1 | 0.854
NCI-H1395 | 1.17
201T | 1.21
NCI-H1915 | 0.732
HCC-827 | 1.08
LXF-289 | 0.917
NCI-H23 | 0.868
NCI-H647 | 1.14
CAL-12T | 1.24
NCI-H1651 | 0.981
EPLC-272H | 1.01
NCI-H2228 | 0.671
NCI-H1355 | 1.03
NCI-H3122 | 1.01
NCI-H1437 | 1.07
NCI-H1755 | 0.975
NCI-H2023 | 1.02
HCC-15 | 0.679
NCI-H1793 | 0.36
PC-14 | 1
EKVX | 0.957
LC-2-ad | 0.378
NCI-H1944 | 0.95
NCI-H1975 | 0.974
RERF-LC-KJ | 0.863
PC-3 [JPC-3] | 0.749

Same assay, conditions: first compound 2 µM

Cell Line | relative viability
NCI-H441 | 0.553
NCI-H1734 | 0.877
NCI-H460 | 1.11
NCI-H2347 | 0.734
SK-LU-1 | 0.868
NCI-H1395 | 1.02
201T | 1.18
NCI-H1915 | 0.797
HCC-827 | 1.03
LXF-289 | 0.932
NCI-H23 | 0.635
NCI-H647 | 1.25
CAL-12T | 1.49
NCI-H1651 | 1.08
EPLC-272H | 1.1
NCI-H2228 | 0.607
NCI-H1355 | 0.951
NCI-H3122 | 1.08
NCI-H1437 | 0.93
NCI-H1755 | 0.936
NCI-H2023 | 0.978
HCC-15 | 0.682
NCI-H1793 | 0.83
PC-14 | 1.08
EKVX | 0.822
LC-2-ad | 0.397
NCI-H1944 | 1.04
NCI-H1975 | 0.981
RERF-LC-KJ | 0.826
PC-3 [JPC-3] | 0.766

Compound: CCN1CCN(c2ccc(Nc3cc(N(C)C(=O)Nc4c(Cl)c(OC)cc(OC)c4Cl)ncn3)cc2)CC1 [BGJ398] + CC1(C)CCC(c2ccc(Cl)cc2)=C(CN2CCN(c3ccc(C(=O)NS(=O)(=O)c4ccc(N[C@H](CCN5CCOCC5)CSc5ccccc5)c(S(=O)(=O)C(F)(F)F)c4)cc3)CC2)C1 [Navitoclax] (partner 0.5 µM)
Experiment: as above
Conditions: first compound 0.01 µM
In short: as §1

Cell Line | relative viability
NCI-H441 | 0.577
NCI-H1734 | 0.836
NCI-H460 | 1.01
NCI-H2347 | 0.671
SK-LU-1 | 0.832
NCI-H1395 | 1.08
201T | 1.33
NCI-H1915 | 0.73
HCC-827 | 0.935
LXF-289 | 0.933
NCI-H23 | 0.874
NCI-H647 | 0.97
CAL-12T | 1.12
NCI-H1651 | 0.988
EPLC-272H | 1.04
NCI-H2228 | 0.728
NCI-H1355 | 0.955
NCI-H3122 | 0.989
NCI-H1437 | 1.1
NCI-H1755 | 0.984
NCI-H2023 | 0.953
HCC-15 | 0.723
NCI-H1793 | 0.417
PC-14 | 1.01
EKVX | 0.896
LC-2-ad | 0.366
NCI-H1944 | 0.986
NCI-H1975 | 1.11
RERF-LC-KJ | 0.98
PC-3 [JPC-3] | 0.756

Same assay, conditions: first compound 0.03162 µM

Cell Line | relative viability
NCI-H441 | 0.795
NCI-H1734 | 0.878
NCI-H460 | 1.11
NCI-H2347 | 0.939
SK-LU-1 | 0.988
NCI-H1395 | 1.36
201T | 1.19
NCI-H1915 | 0.786
LXF-289 | 0.905
NCI-H23 | 0.765
NCI-H647 | 1.26
CAL-12T | 1.38
NCI-H1651 | 1.18
EPLC-272H | 0.989
NCI-H2228 | 1.04
NCI-H1355 | 0.92
NCI-H3122 | 1.01
NCI-H1437 | 1.12
NCI-H1755 | 1.04
NCI-H2023 | 1.01
HCC-15 | 0.75
PC-14 | 1.05
EKVX | 1.02
LC-2-ad | 0.575
NCI-H1944 | 1.05
NCI-H1975 | 1.09
RERF-LC-KJ | 1.09

Same assay, conditions: first compound 0.1 µM

Cell Line | relative viability
NCI-H441 | 0.501
NCI-H1734 | 0.81
NCI-H460 | 1.4
NCI-H2347 | 0.828
SK-LU-1 | 0.865
NCI-H1395 | 1.13
201T | 1.2
NCI-H1915 | 0.774
HCC-827 | 1.03
LXF-289 | 0.892
NCI-H23 | 0.848
NCI-H647 | 1.4
CAL-12T | 1.37
NCI-H1651 | 0.978
EPLC-272H | 1.16
NCI-H2228 | 0.998
NCI-H1355 | 0.996
NCI-H3122 | 1.06
NCI-H1437 | 1.07
NCI-H1755 | 0.986
NCI-H2023 | 1.01
HCC-15 | 0.747
NCI-H1793 | 0.391
PC-14 | 1.06
EKVX | 1.16
LC-2-ad | 0.519
NCI-H1944 | 1.08
NCI-H1975 | 1.12
RERF-LC-KJ | 0.901
PC-3 [JPC-3] | 0.773

Same assay, conditions: first compound 0.3162 µM

Cell Line | relative viability
NCI-H441 | 0.604
NCI-H1734 | 0.832
NCI-H460 | 1.12
NCI-H2347 | 0.835
SK-LU-1 | 1.02
NCI-H1395 | 0.996
201T | 1.2
NCI-H1915 | 0.77
HCC-827 | 1.02
LXF-289 | 0.873
NCI-H23 | 0.896
NCI-H647 | 1.14
CAL-12T | 1.08
NCI-H1651 | 0.961
EPLC-272H | 1.01
NCI-H2228 | 0.893
NCI-H1355 | 0.914
NCI-H3122 | 0.984
NCI-H1437 | 1.08
NCI-H1755 | 0.968
NCI-H2023 | 1.02
HCC-15 | 0.734
NCI-H1793 | 0.251
PC-14 | 1.04
EKVX | 0.874
LC-2-ad | 0.612
NCI-H1944 | 0.884
NCI-H1975 | 1.19
RERF-LC-KJ | 1.06
PC-3 [JPC-3] | 0.637

Same assay, conditions: first compound 1 µM

Cell Line | relative viability
NCI-H441 | 0.722
NCI-H1734 | 0.826
NCI-H460 | 1.33
NCI-H2347 | 0.777
SK-LU-1 | 0.908
NCI-H1395 | 0.848
201T | 1.17
NCI-H1915 | 0.766
HCC-827 | 1.02
LXF-289 | 0.831
NCI-H23 | 0.865
NCI-H647 | 1.01
CAL-12T | 1.13
NCI-H1651 | 0.991
EPLC-272H | 1.09
NCI-H2228 | 0.867
NCI-H1355 | 0.825
NCI-H3122 | 1.05
NCI-H1437 | 1.06
NCI-H1755 | 1.07
NCI-H2023 | 0.993
HCC-15 | 0.769
NCI-H1793 | 0.326
PC-14 | 0.998
EKVX | 0.992
LC-2-ad | 0.392
NCI-H1944 | 1.05
NCI-H1975 | 1.05
RERF-LC-KJ | 0.936
PC-3 [JPC-3] | 0.777
